In US20080119412A1, “Polypeptides for Modulating Binding of Trp Channel Proteins and Trp- Associated Proteins” (NoNO Inc., priority 2003, published 2008):
Residues, ends and D or L forms follow the SMILES beside them. *: point of attachment. Biotin = O=C1N[C@H]2[C@H](CS[C@H]2CCCCC(=O)*)N1

How the values were obtained:
Experiment in all cases: G3 assay titration, GST-PDZ fusion / biotinylated peptide
Format in all cases: binding
ZO-1 d2 = biological target: T1, ZO-1 d2 (Homo sapiens, UniProt Q07157, DEL264-264)
T1 construct: made in house; host or cells: E. coli (DH5alpha, BL21 or JM109)
T1 sequence (Q07157 with tags, fused parts or gaps DEL264-264): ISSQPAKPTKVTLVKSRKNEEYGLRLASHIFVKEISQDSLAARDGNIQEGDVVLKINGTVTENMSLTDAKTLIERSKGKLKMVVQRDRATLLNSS
Summary of the method: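 ELISA with anti-GST-captured GST-PDZ fusions (5 μg/ml), probed by biotinylated Tat-TRPM7 C-terminal peptide precomplexed 20 min with HRP-streptavidin. Binding ran 30 min at room temperature; TMB read at 450 nm. Peptide was titrated from 0.002 to 2 μM and data fitted to a binding equation.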

Mint1 d2 = biological target: T2, Mint1 d2 (Homo sapiens, UniProt Q02410)
T2 construct: made in house; host or cells: E. coli (DH5alpha, BL21 or JM109)
T2 sequence (Q02410 with tags, fused parts or gaps): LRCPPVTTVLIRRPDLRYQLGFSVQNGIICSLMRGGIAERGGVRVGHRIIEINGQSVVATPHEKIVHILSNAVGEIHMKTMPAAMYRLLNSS
Protocol: (§1) The G3 assay is identical to the G0 assay with the following exceptions. The peptides are typically present at 0.1 μM rather than 20 μM. The peptides are also pre-incubated with the HRP-streptavidin prior to adding to the assay plate. In the G0 assay, free peptide is incubated with the PDZ proteins prior to the addition of the HRP-streptavidin. Thus, for the G0 assay one can lose signal if the bound peptide dissociates from the PDZ protein prior to the addition of the HRP-streptavidin. In the G3 modified assay the HRP-streptavidin/peptide complex is added to the plate in one step, thus increasing the likelihood that all the bound peptide will be bound to HRP-streptavidin. The G3 modified assay increases the chance of observing weak interactions.
(§2) This example describes assays to identify binding between TRPM7 and PDZ domains. GST-PDZ fusions are produced that each contain an entire PDZ domain (or multiple PDZ domains), the collection encompassing approximately 90% of all PDZ domains identified in the human genome. (See Table 5 and Section V (PDZ Proteins and PL Protein Interactions Disclosure). Biotinylated peptide corresponding to 11 residues of Tat coupled to the C-terminal 9 amino acids of TRPM7 ([…]; SEQ ID NO:258) is synthesized and purified by HPLC.
(§3) • Nunc MaxiSorp 96 well Immuno-plate, Nunc • PBS pH 7.4 (phosphate buffered saline, 8 g NaCl, 0.29 g KCl, 1.44 g Na2HPO4, 0.24 g KH2PO4, add H2O to 1 liter and pH 7.4; 0.2 μm filter) • Assay Buffer: 2% BSA in PBS (20 g of bovine serum albumin per liter PBS, fraction V, ICN Biomedicals, cat#IC15142983 • Goat anti-GST polyclonal Ab, stock 5 mg/ml, stored at 4° C., Amersham Pharmacia cat#27-4577-01 • Dilute 1:1000 in PBS, final concentration 5 μg/ml. • HRP-Streptavidin, 2.5 mg/2 ml stock stored at 4° C., Zymed cat#43-4323, dilute 1:2000 into Assay buffer, final concentration of […] • Wash Buffer, PBS • Biotinylated peptides (HPLC purified, stock solution stored in −20° C. freezer) • GST-PRISM proteins (stock stored at −80° C., after 1st thaw store in −10° C. freezer) • TMB (3,3′,5,5′, teramethylbensidine), tablets, Sigma cat.#T5525 • Per plate, dissolve 1 tablet in 1 ml DMSO, add 9 ml Citrate/Phosphate buffer pH 5.4 and 2 μL H2O2 • 0.1 M H2SO4, Sigma cat.#S1526 • 12-w multichannel pipettor & tips • 50 ml reagent reservoirs, Costar#4870 • 50, 15 ml polypropylene conical tubes • Costar Transtar 96 Costar #7605 • Transtar 96 Cartridge Costar #7610 • Molecular Devices microplate reader (450 & 650 nm filters) with SoftMax Pro software *When using reagents stored at or 4° C. or −20° C., remove & keep on ice
(§4) • 1. Coat plate with 100 μl of 5 μg/ml anti-GST, overnight at 4° C. • 2. Dump contents of plate & out tap dry on paper towels • 3. Block with 200 μl Assay Buffer for 2 hrs at room temperature • 4. Prepare proteins at 5 μg/ml in Assay Buffer • 5. Wash 3× with cold PBS (4° C.), avoiding letting the plates dry out • 6. Add proteins at 50 μl per well, incubate 1 to 2 hrs at 4° C. • 7. Prepare peptides to desired concentration in Assay Buffer • 8. Wash 3× with cold PBS (4° C.), avoiding letting the plates dry out • 9. Add HRP-Streptavidin/peptide complex [prepared by incubating for 20 minutes at room temperature HRP-Streptavidin (1:2000) with the desired biotin-peptide concentration for 20 minutes at room temperature] at 50 μl per well on ice • 10. Place at room temperature for exactly 30 minutes • 11. Promptly wash 5× with PBS at room temperature • 12. Add 100 μl/well TMB substrate (write time on plate) • 13. Incubate in dark at room temperature for a maximum of 30 minutes • 14. Read plate at 25 minutes (650 nm), optional • 15. Stop reaction with 100 μl of 0.18 M H2SO4, 30 minutes after adding TMB • Take last reading at 450 nm soon after stopping reaction
(§5) The G3 assay was performed on a subset of the PDZ domains as in Example II except that the concentration of peptide was 0.002 μM, […], 0.1 μM, 0.2 μM, 1 μM, and 2 μM. Data was fitted to the equation: […]

KIAA1284 d1 = biological target: T3, KIAA1284 d1 (Homo sapiens, UniProt Q9ULD6)
T3 construct: made in house; host or cells: E. coli (DH5alpha, BL21 or JM109)
T3 sequence (Q9ULD6 159-271): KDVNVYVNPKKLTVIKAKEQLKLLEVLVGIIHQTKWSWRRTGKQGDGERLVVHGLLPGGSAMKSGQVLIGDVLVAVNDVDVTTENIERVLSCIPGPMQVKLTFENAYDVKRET
Protocol: as §1, §2, §3, §4, §5

SITAC-18 d1 = biological target: T4, SITAC-18 d1 (Homo sapiens, UniProt Q9H190)
T4 construct: made in house; host or cells: E. coli (DH5alpha, BL21 or JM109)
T4 sequence (Q9H190 104-195): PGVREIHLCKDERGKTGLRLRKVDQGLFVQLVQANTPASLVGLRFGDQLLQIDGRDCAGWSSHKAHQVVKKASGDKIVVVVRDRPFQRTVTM
Protocol: as §1, §2, §3, §4, §5

TIP1 d1 = biological target: T5, TIP1 d1 (Homo sapiens, UniProt O14907)
T5 construct: made in house; host or cells: E. coli (DH5alpha, BL21 or JM109)
T5 sequence (O14907 14-116): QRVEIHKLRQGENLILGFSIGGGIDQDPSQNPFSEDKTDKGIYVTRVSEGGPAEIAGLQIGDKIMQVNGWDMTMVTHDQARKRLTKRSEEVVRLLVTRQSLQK
Protocol: as §1, §2, §3, §4, §5

MUPP1 d3 = biological target: T6, MUPP1 d3 (Homo sapiens, UniProt O75970)
T6 construct: made in house; host or cells: E. coli (DH5alpha, BL21 or JM109)
T6 sequence (O75970 with tags, fused parts or gaps): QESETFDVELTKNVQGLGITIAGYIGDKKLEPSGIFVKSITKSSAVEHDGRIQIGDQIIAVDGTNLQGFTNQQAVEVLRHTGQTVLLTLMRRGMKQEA
Protocol: as §1, §2, §3, §4, §5

## CSCC[C@H](NC(=O)[C@H](CC(C)C)NC(=O)[C@H](CCCNC(=N)N)NC(=O)[C@@H](NC(=O)[C@H](CO)NC(=O)[C@H](CC(N)=O)NC(=O)[C@@H](NC(=O)[C@H](CO)NC(=O)[C@H](CCCNC(=N)N)NC(=O)[C@H](CCCNC(=N)N)NC(=O)[C@H](CCCNC(=N)N)NC(=O)[C@H](CCC(N)=O)NC(=O)[C@H](CCCNC(=N)N)NC(=O)[C@H](CCCNC(=N)N)NC(=O)[C@H](CCCCN)NC(=O)[C@H](CCCCN)NC(=O)[C@H](CCCNC(=N)N)NC(=O)CNC(=O)[C@H](Cc1ccc(O)cc1)NC(=O)CCCC[C@@H]1SC[C@@H]2NC(=O)N[C@@H]21)[C@@H](C)O)C(C)C)C(=O)N[C@@H](CC(C)C)C(=O)O [Tat-TRPM7 peptide] (Biotin-YGRKKRRQRRRSTNSVRLML-OH)
ZO-1 d2
  EC50: 33 nM
Mint1 d2
  EC50: < 2000 nM
KIAA1284 d1
  EC50: > 2000 nM
SITAC-18 d1
  EC50: < 1000 nM
TIP1 d1
  EC50: < 1000 nM
MUPP1 d3
  EC50: 290 nM
